From PubChem BioAssay (NCI)
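Five concentrations, 48 hours, 96-well plates. GI50: concentration for 50% inhibition of growth. TGI: total growth inhibition.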

Columns and labels:
Assay in all cases: NCI-60 cell line screen, 48 h; in the data active = GI50 below about 0.43 µM; inactive = the rest
MOLT-4 leukemia = tested on: MOLT-4 leukemia
NCI-H226 lung = tested on: NCI-H226 lung
COLO 205 colon = tested on: COLO 205 colon
SW-620 colon = tested on: SW-620 colon
BT-549 breast = tested on: BT-549 breast
OVCAR-8 ovarian = tested on: OVCAR-8 ovarian
NCI-H23 lung = tested on: NCI-H23 lung
NCI/ADR-RES ovarian = tested on: NCI/ADR-RES ovarian
MCF7 breast = tested on: MCF7 breast
OVCAR-5 ovarian = tested on: OVCAR-5 ovarian
IGROV1 ovarian = tested on: IGROV1 ovarian
TK-10 renal = tested on: TK-10 renal
HCT-116 colon = tested on: HCT-116 colon
U251 CNS = tested on: U251 CNS
SNB-19 CNS = tested on: SNB-19 CNS
SK-OV-3 ovarian = tested on: SK-OV-3 ovarian
RPMI-8226 leukemia = tested on: RPMI-8226 leukemia
HS 578T breast = tested on: HS 578T breast
SF-268 CNS = tested on: SF-268 CNS
786-0 renal = tested on: 786-0 renal
HCT-15 colon = tested on: HCT-15 colon
KM12 colon = tested on: KM12 colon
LOX IMVI melanoma = tested on: LOX IMVI melanoma
CCRF-CEM leukemia = tested on: CCRF-CEM leukemia
OVCAR-4 ovarian = tested on: OVCAR-4 ovarian
MDA-MB-231 breast = tested on: MDA-MB-231 breast
UACC-62 melanoma = tested on: UACC-62 melanoma
T-47D breast = tested on: T-47D breast
SK-MEL-28 melanoma = tested on: SK-MEL-28 melanoma
MALME-3M melanoma = tested on: MALME-3M melanoma
SK-MEL-5 melanoma = tested on: SK-MEL-5 melanoma
K-562 leukemia = tested on: K-562 leukemia
SN12C renal = tested on: SN12C renal
RXF 393 renal = tested on: RXF 393 renal
HCC-2998 colon = tested on: HCC-2998 colon
SR leukemia = tested on: SR leukemia
MDA-MB-435 = tested on: MDA-MB-435
HOP-92 NSCLC = tested on: HOP-92 NSCLC
CAKI-1 renal = tested on: CAKI-1 renal
ACHN renal = tested on: ACHN renal
A498 renal = tested on: A498 renal
HT29 colon = tested on: HT29 colon
UO-31 renal = tested on: UO-31 renal
M14 melanoma = tested on: M14 melanoma
A549 NSCLC = tested on: A549 NSCLC
HL-60(TB) leukemia = tested on: HL-60(TB) leukemia
PC-3 prostate = tested on: PC-3 prostate
SF-539 CNS = tested on: SF-539 CNS
DU-145 prostate = tested on: DU-145 prostate
OVCAR-3 ovarian = tested on: OVCAR-3 ovarian
NCI-H460 lung = tested on: NCI-H460 lung
UACC-257 melanoma = tested on: UACC-257 melanoma
NCI-H522 lung = tested on: NCI-H522 lung
SK-MEL-2 melanoma = tested on: SK-MEL-2 melanoma
HOP-62 NSCLC = tested on: HOP-62 NSCLC
EKVX NSCLC = tested on: EKVX NSCLC
SNB-75 CNS = tested on: SNB-75 CNS
SF-295 CNS = tested on: SF-295 CNS

Nc1nc(-c2ccccc2Cl)cc(-c2ccc(Cl)cc2Cl)n1
81.6 µM: TGI (SF-268 CNS)
62.3 µM: TGI (SK-OV-3 ovarian)
> 100 µM: TGI (MOLT-4 leukemia) | TGI (NCI-H226 lung) | TGI (SW-620 colon) | TGI (BT-549 breast) | TGI (OVCAR-8 ovarian) | TGI (NCI-H23 lung) | TGI (NCI/ADR-RES ovarian) | TGI (MCF7 breast) | TGI (OVCAR-5 ovarian) | TGI (IGROV1 ovarian) | TGI (HCT-116 colon) | TGI (U251 CNS) | TGI (SNB-19 CNS) | TGI (786-0 renal) | TGI (HCT-15 colon) | TGI (LOX IMVI melanoma) | TGI (CCRF-CEM leukemia) | TGI (MDA-MB-231 breast) | TGI (T-47D breast) | TGI (SK-MEL-28 melanoma) | TGI (MALME-3M melanoma) | TGI (K-562 leukemia) | TGI (SN12C renal) | TGI (SR leukemia) | TGI (CAKI-1 renal) | TGI (ACHN renal) | TGI (UO-31 renal) | TGI (M14 melanoma) | TGI (A549 NSCLC) | TGI (PC-3 prostate) | TGI (HOP-62 NSCLC)
17.3 µM: TGI (HL-60(TB) leukemia)
20.7 µM: TGI (OVCAR-3 ovarian)
70.1 µM: TGI (DU-145 prostate)
4.93 µM: TGI (MDA-MB-435)
60.7 µM: TGI (HS 578T breast)
23.3 µM: TGI (NCI-H522 lung)
17.6 µM: TGI (RPMI-8226 leukemia)
51 µM: TGI (TK-10 renal)
20.8 µM: TGI (SK-MEL-5 melanoma)
31.3 µM: TGI (KM12 colon)
44.8 µM: TGI (SK-MEL-2 melanoma)
44 µM: TGI (HCC-2998 colon)
67 µM: TGI (SF-539 CNS)
7.62 µM: TGI (HOP-92 NSCLC)
55.2 µM: TGI (UACC-257 melanoma)
22.8 µM: TGI (A498 renal)
24.3 µM: TGI (HT29 colon)
44.2 µM: TGI (UACC-62 melanoma)
10.7 µM: TGI (RXF 393 renal)
15.5 µM: TGI (COLO 205 colon)
89.7 µM: TGI (OVCAR-4 ovarian)
23.1 µM: TGI (NCI-H460 lung)
inactive: GI50 (MOLT-4 leukemia) 4.82 µM | GI50 (NCI-H226 lung) 18.1 µM | GI50 (COLO 205 colon) 3.52 µM | GI50 (SW-620 colon) 3.41 µM | GI50 (BT-549 breast) 13.8 µM | GI50 (OVCAR-8 ovarian) 6.87 µM | GI50 (NCI-H23 lung) 12.3 µM | GI50 (NCI/ADR-RES ovarian) 14.8 µM | GI50 (MCF7 breast) 3.45 µM | GI50 (OVCAR-5 ovarian) 8.09 µM | GI50 (IGROV1 ovarian) 12.3 µM | GI50 (TK-10 renal) 9.46 µM | GI50 (HCT-116 colon) 4.27 µM | GI50 (U251 CNS) 11.1 µM | GI50 (SNB-19 CNS) 16.1 µM | GI50 (SK-OV-3 ovarian) 10.1 µM | GI50 (RPMI-8226 leukemia) 3.1 µM | GI50 (HS 578T breast) 6.04 µM | GI50 (SF-268 CNS) 5.01 µM | GI50 (786-0 renal) 20.2 µM | GI50 (HCT-15 colon) 5.09 µM | GI50 (KM12 colon) 4.1 µM | GI50 (LOX IMVI melanoma) 4.89 µM | GI50 (CCRF-CEM leukemia) 4.17 µM | GI50 (OVCAR-4 ovarian) 12.1 µM | GI50 (MDA-MB-231 breast) 9.3 µM | GI50 (UACC-62 melanoma) 5.93 µM | GI50 (T-47D breast) 6.58 µM | GI50 (SK-MEL-28 melanoma) 20.9 µM | GI50 (MALME-3M melanoma) 17.7 µM | GI50 (SK-MEL-5 melanoma) 4.78 µM | GI50 (K-562 leukemia) 3.97 µM | GI50 (SN12C renal) 13.1 µM | GI50 (RXF 393 renal) 2.67 µM | GI50 (HCC-2998 colon) 7.19 µM | GI50 (SR leukemia) 4.1 µM | GI50 (MDA-MB-435) 1.97 µM | GI50 (HOP-92 NSCLC) 0.527 µM | GI50 (CAKI-1 renal) 9.27 µM | GI50 (ACHN renal) 10.4 µM | GI50 (A498 renal) 3.34 µM | GI50 (HT29 colon) 4.32 µM | GI50 (UO-31 renal) 13.5 µM | GI50 (M14 melanoma) 5.95 µM | GI50 (A549 NSCLC) 4.81 µM | GI50 (HL-60(TB) leukemia) 3.14 µM | GI50 (PC-3 prostate) 5.43 µM | GI50 (SF-539 CNS) 7.39 µM | GI50 (DU-145 prostate) 5.33 µM | GI50 (OVCAR-3 ovarian) 4.05 µM | GI50 (NCI-H460 lung) 3.31 µM | GI50 (UACC-257 melanoma) 11.9 µM | GI50 (NCI-H522 lung) 3.27 µM | GI50 (SK-MEL-2 melanoma) 6.1 µM | GI50 (HOP-62 NSCLC) 8.21 µM

O=c1c(-c2nc3ccccc3[nH]2)cc2ccccc2n1Cc1cn(Cc2ccc(F)cc2)nn1
7.84 µM: TGI (OVCAR-5 ovarian)
1.05 µM: TGI (DU-145 prostate)
0.39 µM: TGI (M14 melanoma)
50.7 µM: TGI (UACC-62 melanoma)
57.6 µM: TGI (SF-268 CNS)
5.56 µM: TGI (HCT-116 colon)
10.2 µM: TGI (SK-MEL-2 melanoma)
0.911 µM: TGI (OVCAR-3 ovarian)
> 100 µM: TGI (MOLT-4 leukemia) | TGI (NCI-H226 lung) | TGI (EKVX NSCLC) | TGI (SW-620 colon) | TGI (OVCAR-8 ovarian) | TGI (IGROV1 ovarian) | TGI (RPMI-8226 leukemia) | TGI (LOX IMVI melanoma) | TGI (CCRF-CEM leukemia) | TGI (OVCAR-4 ovarian) | TGI (T-47D breast) | TGI (K-562 leukemia) | TGI (SN12C renal) | TGI (SR leukemia) | TGI (CAKI-1 renal) | TGI (UO-31 renal) | TGI (A549 NSCLC) | TGI (PC-3 prostate) | TGI (NCI-H460 lung) | TGI (UACC-257 melanoma)
0.113 µM: TGI (SNB-75 CNS)
12.4 µM: TGI (U251 CNS)
1.18 µM: TGI (HS 578T breast)
0.716 µM: TGI (A498 renal)
> 55.1 µM: TGI (MCF7 breast)
96.9 µM: TGI (HT29 colon)
15.8 µM: TGI (TK-10 renal)
> 50.9 µM: TGI (HCT-15 colon)
11.3 µM: TGI (786-0 renal)
8.41 µM: TGI (MDA-MB-231 breast)
11 µM: TGI (SF-295 CNS)
0.484 µM: TGI (RXF 393 renal)
4.63 µM: TGI (SK-OV-3 ovarian)
19 µM: TGI (NCI-H23 lung)
> 40.5 µM: TGI (BT-549 breast) | TGI (ACHN renal)
66.4 µM: TGI (MALME-3M melanoma)
> 41.5 µM: TGI (KM12 colon)
> 85.7 µM: TGI (SK-MEL-5 melanoma)
3.31 µM: TGI (HCC-2998 colon)
9.51 µM: TGI (HOP-62 NSCLC)
inactive: GI50 (NCI-H226 lung) 0.572 µM | GI50 (EKVX NSCLC) 0.799 µM | GI50 (NCI-H23 lung) 0.457 µM | GI50 (NCI/ADR-RES ovarian) 1.28 µM | GI50 (TK-10 renal) 0.793 µM | GI50 (OVCAR-4 ovarian) 1.35 µM | GI50 (UACC-62 melanoma) 0.437 µM | GI50 (ACHN renal) 0.492 µM | GI50 (UACC-257 melanoma) > 100 µM
active: GI50 (MOLT-4 leukemia) 0.233 µM | GI50 (SW-620 colon) 0.0672 µM | GI50 (BT-549 breast) 0.164 µM | GI50 (OVCAR-8 ovarian) 0.139 µM | GI50 (MCF7 breast) 0.0329 µM | GI50 (OVCAR-5 ovarian) 0.287 µM | GI50 (IGROV1 ovarian) 0.221 µM | GI50 (HCT-116 colon) 0.0442 µM | GI50 (U251 CNS) 0.161 µM | GI50 (SNB-75 CNS) < 0.0149 µM | GI50 (SNB-19 CNS) 0.305 µM | GI50 (SK-OV-3 ovarian) 0.328 µM | GI50 (RPMI-8226 leukemia) 0.0427 µM | GI50 (HS 578T breast) 0.0546 µM | GI50 (SF-268 CNS) 0.259 µM | GI50 (786-0 renal) 0.415 µM | GI50 (HCT-15 colon) 0.399 µM | GI50 (KM12 colon) 0.143 µM | GI50 (LOX IMVI melanoma) 0.084 µM | GI50 (CCRF-CEM leukemia) 0.135 µM | GI50 (MDA-MB-231 breast) 0.313 µM | GI50 (T-47D breast) 0.206 µM | GI50 (MALME-3M melanoma) 0.213 µM | GI50 (SK-MEL-5 melanoma) 0.164 µM | GI50 (SF-295 CNS) 0.253 µM | GI50 (K-562 leukemia) 0.0609 µM | GI50 (SN12C renal) 0.203 µM | GI50 (RXF 393 renal) 0.125 µM | GI50 (HCC-2998 colon) 0.203 µM | GI50 (SR leukemia) 0.0732 µM | GI50 (HOP-92 NSCLC) 0.364 µM | GI50 (CAKI-1 renal) 0.246 µM | GI50 (A498 renal) 0.127 µM | GI50 (HT29 colon) 0.041 µM | GI50 (UO-31 renal) 0.327 µM | GI50 (M14 melanoma) 0.0568 µM | GI50 (A549 NSCLC) 0.116 µM | GI50 (PC-3 prostate) 0.153 µM | GI50 (SF-539 CNS) 0.137 µM | GI50 (DU-145 prostate) 0.143 µM | GI50 (OVCAR-3 ovarian) 0.15 µM | GI50 (NCI-H460 lung) 0.0435 µM | GI50 (NCI-H522 lung) 0.0957 µM | GI50 (SK-MEL-2 melanoma) 0.348 µM | GI50 (HOP-62 NSCLC) 0.222 µM
19.2 µM: TGI (NCI/ADR-RES ovarian)
25.2 µM: TGI (SNB-19 CNS)
0.636 µM: TGI (SF-539 CNS)
18.2 µM: TGI (HOP-92 NSCLC)
